Measured values as given in patent publication US20090110673A1, “METHODS OF REDUCING CELL DEATH FOLLOWING HYPOXIA / REOXYGENATION” (THE UNIVERSITY OF CHICAGO, priority 2006, published 2009).

How the values were obtained:
[1] = test system: Ventricular embryonic chick cardiomyocytes; experiment: Cell death (propidium iodide viability assay) after simulated ischemia/reperfusion; assay type: cell-based; settings: first 10 minutes of reperfusion, control 47.1±3.0%, n=5
Experimental: Ventricular embryonic chick cardiomyocytes were prepared according to published procedure. […] Coverslips were checked for non-muscle cell contamination.
(§1) Coverslips with contracting cells were placed in a 1.2 mL Sykes-Moore perfusion chamber (Bellco Glass Inc., Vineland, N.J.). The chamber and inflow tubing were maintained at 37° C. Perfusate was supplied to the chamber (0.25 ml/min) via stainless steel tubing to minimize diffusive entry of ambient O2.
Cell viability was assessed with the fluorochrome propidium iodide (PI) (5 μM, Molecular Probes, Eugene, Oreg.). PI is excluded from viable cells, but enters cells and binds to chromatin after loss of cell membrane integrity. The cells then become highly fluorescent (excitation wavelength of 540 nm and a 590 nm band pass emission filter). PI was used to quantify cell death throughout the entire time of each experiment. […] All cells in the field studied were stained with PI at the end of the experiment by permeabilizing the cells with digitonin (300 μM). Percent cell death was then calculated as the PI fluorescence at any given time point relative to the maximal fluorescence value seen after digitonin exposure.
(§2) For each experiment a field of about 500 cells was observed. Treatment and control groups were matched in sets containing cells isolated and cultured on the same day so as to eliminate variability due to cell batch. Additional 25 mm coverslips were used for replicate experiments (“n”). Results are reported as means plus or minus S.E.M. and two-tailed unpaired t-tests comparing similar time points throughout ischemia and reperfusion were used as tests of significance, with p<0.05 considered to be significant.

[2] = test system: reactive oxygen species (ROS) in embryonic chick cardiomyocytes; experiment: Intracellular ROS (DCF fluorescence) at reperfusion after simulated ischemia; assay type: cell-based; settings: 0.1 μM, first 10 minutes of reperfusion; control 2.8±0.2 a.u.; n=3
Experimental: (§3) Ventricular embryonic chick cardiomyocytes were prepared according to published procedure. (Vanden Hoek T L, Becker L B, Shao Z, et al. Reactive oxygen species released from mitochondria during brief hypoxia induce preconditioning in cardiomyocytes, J. Biol. Chem. […]; 273:18092-18098, which is incorporated herein by reference). 10-day old chicken embryo hearts were removed, ventricular tissue minced into 0.5 mm fragments, enzymatically dispersed with 0.025% trypsin (Life Technologies, New York, N.Y.), centrifuged, 0.7×10^6 cells were pipetted onto 25 mm coverslips, and incubated with 5% CO2. Coverslips were checked for non-muscle cell contamination. Experiments were performed with 3-5 day cardiac cell cultures, by which time a synchronously contracting layer of cells could be visualized and viability exceeded 95%.
as §1
(§4) Normoxic perfusate used for baseline conditions and for reperfusion subsequent to ischemia contained oxygenated balanced salt solution (BSS) with a PO2 OF 149 torr, PCO2 of 40 torr, pH of 7.4, and [K]^+ of 4.0 mEq/L, and glucose (5.6 mM). To simulate ischemia, the perfusate contained BSS with 2-deoxyglucose (2-DOG) (20 mM) rather than glucose and [K]^+ of 8.0 mEq/L. The ischemic perfusate was equilibrated with 80% N2 and 20% CO2 prior to use to produce a PO2 of ˜5 torr, a PCO2 of 144 torr and a final pH of 6.8.
Intracellular oxidant stress due to ROS was monitored real time with the intracellular probe 2′,7′-dichlorofluorescin diacetate (DCFH-DA, 5 μM, Molecular Probes, Eugene, Oreg.) as described in published literature (Vanden Hoek, F L, et al., Reactive oxygen species released from mitochondria during brief hypoxia induce preconditioning in cardiomyocytes, J. Biol. Chem. […]; 273:18092-18098, which is incorporated by reference herein; Vanden Hoek, T L, et al, Preconditioning in cardiomyocytes protects by attenuating oxidant stress at reperfusion, Circ Res 2000; 86:534-540, which is incorporated by reference herein; Vanden Hoek, T L, Reperfusion, not simulated ischemia initiates intrinsic apoptosis injury in chick cardiomyocytes Am J. Physiol Heart Physiol 2003; 284:H141-150, which is incorporated by reference herein). DCFH-DA is cleaved by cellular esterases upon entry into the cells, trapping the nonfluorescent 2′,7′-dichlorofluorescin (DCFH) inside. ROS, particularly hydrogen peroxide (H2O2) and hydroxyl radical generate the fluorescent product dichlorofluorescein (DCF) by causing the oxidation of DCFH. Increases in DCF fluorescence result from DCFH oxidation to DCF. DCF fluorescence was measured at an excitation wavelength of 480 nm, and a 520 nm band pass emission filter. Attention was focused on the maximal DCF fluorescence intensity value during the first minutes of reperfusion for comparison. All measurements were expressed in arbitrary units (a.u.) of fluorescence.
as §2

[3] = test system: Ventricular embryonic chick cardiomyocytes; experiment: Return of synchronous cell contraction after simulated ischemia/reperfusion; assay type: cell-based; settings: 0.1 μM, first 10 minutes of reperfusion; control 0/7
Experimental: as §3, §4
Contractions were assessed by monitoring synchronous movement within the same field of cells as previously reported. A return of contraction following simulated ischemia/reperfusion was indicated when contractions could be seen throughout the field of cells following the three hour period of reperfusion.

[4] = test system: mitochondrial respiration; experiment: Decrease of mitochondrial respiration; settings: dose administered to achieve protection

O=C(O)c1ccc2cc3ccccc3cc2c1 [2-anthracene-carboxylic acid]
I/R induced cell death ([1]; 0.1 μM): 26.1±4.0%
cell death ([1]; 1 μM as printed in Example 4): 26.1±4.0%
maximal DCF fluorescence intensity [2]: 1.7±0.1 a.u.
return of synchronous contractions (groups with return/total) [3]: 5/5
decrease of mitochondrial respiration [4]: 10-15%
